Laboratory results published in the NIST ThermoML archive (doi:10.1021/je060271a).

Conditions: 343.15 K, Liquid, Vibrating tube method

CCCCCC(=O)OCC(COC(=O)CCCCC)(COC(=O)CCCCC)COC(=O)CCCCC [pentaerythritol tetrahexanoate]
Conditions | mass density [kg/m3]
21939 kPa | 973
21970 kPa | 972.9
21994 kPa | 973
22600 kPa | 973.4
22626 kPa | 973.4
22658 kPa | 973.4
22686 kPa | 973.3
22712 kPa | 973.5
22744 kPa | 973.6
22771 kPa | 973.5
22798 kPa | 973.5
22831 kPa | 973.5
22858 kPa | 973.7
22886 kPa | 973.6
22919 kPa | 973.6
22946 kPa | 973.6
22973 kPa | 973.7
23356 kPa | 974
23808 kPa | 974.2
23832 kPa | 974.2
23863 kPa | 974.2
23889 kPa | 974.2
24332 kPa | 974.5
24359 kPa | 974.5
24391 kPa | 974.4
24418 kPa | 974.6
24449 kPa | 974.6
24476 kPa | 974.6
24504 kPa | 974.6
24536 kPa | 974.6
24563 kPa | 974.7
24590 kPa | 974.6
24623 kPa | 974.7
24651 kPa | 974.6
24678 kPa | 974.6
24711 kPa | 974.8
24738 kPa | 974.7
24766 kPa | 974.8
24799 kPa | 974.9
24827 kPa | 974.8
24855 kPa | 974.9
24888 kPa | 974.9
24917 kPa | 975
24945 kPa | 974.9
24979 kPa | 974.9
25008 kPa | 974.9
25036 kPa | 975
25070 kPa | 975
25099 kPa | 975.2
25128 kPa | 975
25162 kPa | 975.1
25191 kPa | 975.2
25220 kPa | 975.2
25249 kPa | 975.1
25284 kPa | 975.1
25313 kPa | 975.2
25349 kPa | 975.2
25379 kPa | 975.3
25408 kPa | 975.2
25438 kPa | 975.4
25473 kPa | 975.3
25502 kPa | 975.2
25532 kPa | 975.2
25562 kPa | 975.2
25598 kPa | 975.4
25628 kPa | 975.4
25657 kPa | 975.4
25693 kPa | 975.4
25724 kPa | 975.5
26078 kPa | 975.6
26108 kPa | 975.7
26134 kPa | 975.6
26161 kPa | 975.8
26188 kPa | 975.7
26213 kPa | 975.8
26245 kPa | 975.8
26271 kPa | 975.7
26298 kPa | 975.9
26330 kPa | 975.7
26356 kPa | 975.9
26387 kPa | 976
26413 kPa | 975.9
26439 kPa | 976
26471 kPa | 975.9
26498 kPa | 975.9
26524 kPa | 976
26552 kPa | 975.9
26585 kPa | 976
26612 kPa | 976.1
26644 kPa | 976
26671 kPa | 976.1
26873 kPa | 976.3
26906 kPa | 976.2
26934 kPa | 976.2
26962 kPa | 976.3
26990 kPa | 976.1
27023 kPa | 976.3
27051 kPa | 976.1
27079 kPa | 976.3
27113 kPa | 976.4
27141 kPa | 976.3
27174 kPa | 976.3
27202 kPa | 976.4
27230 kPa | 976.3
27264 kPa | 976.5
27293 kPa | 976.4
27322 kPa | 976.5
27351 kPa | 976.4
27385 kPa | 976.5
27414 kPa | 976.6
27449 kPa | 976.6
27478 kPa | 976.5
27508 kPa | 976.5
27537 kPa | 976.6
27572 kPa | 976.6
28317 kPa | 977.1
28347 kPa | 977.2
28372 kPa | 977.1
28396 kPa | 977.2
28427 kPa | 977.3
28453 kPa | 977.2
28479 kPa | 977.2
28503 kPa | 977.2
28528 kPa | 977.2
28558 kPa | 977.3
28583 kPa | 977.4
29079 kPa | 977.5
29105 kPa | 977.6
29132 kPa | 977.6
29164 kPa | 977.6
29190 kPa | 977.6
29216 kPa | 977.6
29248 kPa | 977.7
29274 kPa | 977.7
29301 kPa | 977.7
29333 kPa | 977.8
29446 kPa | 977.9
29473 kPa | 977.8
29506 kPa | 977.8
29763 kPa | 978.1
29796 kPa | 978.2
29852 kPa | 978.1
29886 kPa | 978.2
29914 kPa | 978.1
